Measurements as given in publication PMC10747733, “N-Substituted 2-(Benzenosulfonyl)-1-Carbotioamide Derivatives Exert Antimicrobial and Cytotoxic Effects via Aldehyde Dehydrogenase Pathway: Synthesis, In Silico and In Vitro Studies” (Pharmaceuticals, 2023).
Where “and” joins values, the source holds several entries; their conditions need not be identical. Equal entries are not always repeated. Entries after “also recorded” stand apart in the source; their conditions may differ.

Experiments:
Type in all cases: cell-based, human
[1] = tested on: WS1 (fibroblasts); experiment: MTT antiproliferative activity assay; conditions: for concentration at which a statistically significant decrease in viability was observed: tested 1–500 µM
Procedure: (§1) Cancer cell lines originating from different organs, i.e., AGS (stomach—gastric adenocarcinoma), HepG2 (hepatocellular carcinoma), Du145, PC3 (prostate cancer), 769-P (renal cell carcinoma) and physiology cell line WS1 (fibroblasts), were purchased from ATCC. The cell cultures were carried out in an appropriate medium (DMEM or MEM) containing 10% heat-inactivated FBS with penicillin (100 U/mL) and streptomycin (100 U/mL). The cells were kept in a humidified incubator at 37 °C and 5% CO2 and passaged three times before experimenting.
(§2) The antiproliferative properties test for each cancer line was performed in 96-well plates, in which cells with a density of 2 × 10^4 were seeded in 100 µL of medium containing 10% FBS. After 24 h of allowing the cells to attach, the wells were washed with DPBS (Dulbecco’s phosphate-buffered saline) solution and the cells were incubated in fresh medium w/o FBS containing 1 µM, 10 µM, 50 µM, 200 µM or 500 µM of the tested compounds for 24 and 48 h. All substances were first dissolved in DMSO to prepare stock solutions that were then diluted in the medium to obtain a maximum of 0.1% w/v DMSO in the final solution. Each concentration was tested in triplicate. DMSO at a concentration of 0.1% in the medium was also used as a negative control. The antiproliferative activity of the compounds was tested using the MTT test. After each incubation time, the medium containing the test compounds and the negative control was removed, the cells were washed with DPBS solution, and then 100 µL of FBS-free and antibiotic-free fresh medium containing 0.5 mg/mL MTT was added to each well. The plates were incubated for 3 h in an incubator at 37 °C and 5% CO2. After incubation, the medium was removed, the cells were washed with 100 µL of PBS, and 100 µL of DMSO was added to each well to dissolve the purple formazan. The plate was shaken for 3 min and the absorbance was read at 570 nm (BioTek Synergy H1 microplate reader). Cell viability was calculated from the mean of the OD readings. Based on the dose–response curve, IC50 values were calculated (MS Excel). […] Therapeutic index (TI) results were calculated as the ratio of the IC50 of physiological cells to the IC50 of tumor cells.

[2] = tested on: 769-P (renal cell carcinoma); experiment: MTT antiproliferative activity assay; conditions: for decrease in viability: 769-P; for TI after 24h / TI after 48h: IC50 WS1 / IC50 769-P
Procedure: as §1, §2

[3] = tested on: AGS (gastric adenocarcinoma); experiment: MTT antiproliferative activity assay; conditions: for decrease in viability: AGS; for TI after 24h / TI after 48h: IC50 WS1 / IC50 AGS
Procedure: as §1, §2

[4] = tested on: PC3 (prostate cancer); experiment: MTT antiproliferative activity assay; conditions: for TI after 24h / TI after 48h: IC50 WS1 / IC50 PC3
Procedure: as §1, §2

[5] = tested on: Du145 (prostate cancer); experiment: MTT antiproliferative activity assay; conditions: for concentration at which a statistically significant decrease in viability was observed: tested 1–500 µM; for TI after 24h / TI after 48h: IC50 WS1 / IC50 DU145
Procedure: as §1, §2

[6] = tested on: HepG2 (hepatocellular carcinoma); experiment: MTT antiproliferative activity assay; conditions: for TI after 24h / TI after 48h: IC50 WS1 / IC50 HepG2
Procedure: as §1, §2

[7] = tested on: ALDH1A1; experiment: ALDH1A1 concentration by ELISA in HepG2 cells; conditions: compound at IC25, 48 h
Procedure: The effect of compounds WZ1–WZ4 on ALDHA1 levels was investigated (Figure 10). The Du145, HepG2 and 769-P cell lines were treated with the calculated IC25 values for each compound.
Selected cell lines, viz HepG2, Du145 and 769-P, were seeded into 6-well plates and incubated for 24 h after seeding with compounds at a concentration equal to IC25. After a further 24 h or 48 h, cells were detached with trypsin and centrifuged. The resulting cell pellet was resuspended in 0.5 mL PBS. The samples were then sonicated, and protein was determined using the Bradford method (Bio-rad; Hercules, CA, USA). Samples were equilibrated to 10 mg/mL of protein, and ALDH1A1 was determined in the samples prepared in this way. ALDH1A1 determination was performed using an ELISA (SEE824Hu; Cloud Clone Corp., Katy, TX, USA), according to the manufacturer’s protocol.

Row | SMILES | concentration at which a statistically significant decrease in viability was observed ([1]; 24 h) | concentration at which a statistically significant decrease in viability was observed ([1]; 48 h) | decrease in viability ([2]; 24 h, 1 µM) | decrease in viability ([2]; 48 h, 1 µM) | TI after 24h ([2]; 24 h) | TI after 48h ([2]; 48 h) | decrease in viability ([3]; 24 h, 1 µM) | TI after 24h ([3]; 24 h) | TI after 48h ([3]; 48 h) | TI after 24h ([4]; 24 h) | TI after 48h ([4]; 48 h) | decrease in viability ([4]; PC3, 24 h, 50 µM) | decrease in viability ([5]; Du145, 24 h, 1 µM) | concentration at which a statistically significant decrease in viability was observed ([5]; Du145, 48 h) | TI after 24h ([5]; 24 h) | TI after 48h ([5]; 48 h) | decrease in viability ([6]; HepG2, 24 h, 200 µM) | TI after 24h ([6]; 24 h) | TI after 48h ([6]; 48 h) | decrease in viability ([3]; 48 h, 1 µM) | further results
1 | O=S(=O)(NNC(=S)NC1CCCCC1)c1ccccc1 [WZ1, 2-(Benzenesulfonyl)-N-Cyclohexylhydrazine-1-Carbothioamide] | 200 µM | 200 µM | ~ 11% | ~ 15% | 22.712 | 7.757 | ~ 16% | 14.043 | 0.952 | 18.426 | 1.521 | ~ 11% | ~ 7% | 200 µM | 16.001 | 0.170 | ~ 15% | 0.003 | 7.442 | – | decrease in viability ([3]; 48 h, 50 µM): ~ 6%; concentration at which a statistically significant decrease in viability was observed ([4]; PC3, 48 h, tested 1–500 µM): 10 µM; decrease in viability ([6]; HepG2, 48 h, 10 µM): ~ 7%
2 | CCCCNC(=S)NNS(=O)(=O)c1ccccc1 [WZ2, 2-(Benzenesulfonyl)-N-Butylhydrazine-1-Carbothioamide] | no reduction in viability | – | ~ 8% | ~ 10% | 753,464,970.626 | 67,951.475 | ~ 8% | 1,905,977,431.260 | 0.368 | 289,230,463.397 | 224,184.286 | – | – | – | 2,352,384.152 | 28.982 | – | 205,540,220.291 | 15,880.957 | ~ 6% | ALDH1A1 concentration compared to control [7]: increase; also recorded: increased levels; decrease in viability ([1]; 48 h, 200 µM): ~ 17%; decrease in viability ([1]; 48 h, 500 µM): ~ 23%; viability (reduced to) ([4]; PC3, 24 h, 200 µM): ~ 82%; viability (reduced to) ([4]; PC3, 48 h, 50 µM): ~ 88%; viability at 50 µM ([5]; Homo sapiens, DU-145, Du145, 24 h, 50 µM, read-out: viability (dropped to)): ~80%; viability at 1 µM ([5]; Homo sapiens, DU-145, Du145, 48 h, 1 µM, read-out: viability (dropped to)): ~92%; decrease in viability ([6]; HepG2, 24 h, 500 µM): ~ 22%; viability (decreased to) ([6]; HepG2, 48 h, 1 µM): ~ 82%
3 | CCCCCCNC(=S)NNS(=O)(=O)c1ccccc1 [WZ3, 2-(Benzenesulfonyl)-N-Hexylhydrazine-1-Carbothioamide] | 1 to 500 µM | no significant change in viability | ~ 22% | ~ 48% | 0.078 | 115.134 | ~ 9% | 1.169 | 1.284 | 2.291 | – | – | – | – | 0.476 | – | ~ 31% | 1.701 | 2.426 | ~ 9% | decrease in viability ([1]; 24 h, 1 µM): ~ 12%; decrease in viability ([1]; 48 h, 500 µM): ~ 64%; decrease in viability ([2]; 24 h, 200 µM): ~ 22%; viability (reduced to) ([4]; PC3, 24 h, 50 µM): ~ 76%; decrease in viability ([4]; PC3, 48 h, 200 µM): ~ 11%; decrease in viability ([5]; Du145, 24 h, 200 µM): ~ 19%; decrease in viability ([5]; Du145, 48 h, 50 µM): ~ 6%; decrease in viability ([6]; HepG2, 48 h, 1 µM): ~ 7%
4 | CNC(=S)NNS(=O)(=O)c1ccccc1 [WZ4, 2-(Benzenesulfonyl)-N-Methylhydrazine-1-Carbothioamide] | 1 to 500 µM | – | – | ~ 16% | 1.653 | 15.763 | ~ 7% | 4.537 | 7.390 | 0.920 and < 1 | – | ~ 27% | ~ 10% | 1 to 500 µM | – | 1.272 and > 1 | ~ 18% | – | – | ~ 12% | ALDH1A1 concentration compared to control [7]: increase; also recorded: increased levels; decrease in viability ([1]; 24 h, all concentrations tested (1–500 µM)): 10–52%; decrease in viability ([1]; 48 h, 200 µM): ~ 15%; decrease in viability ([2]; 24 h, across 10–500 µM): 21–56%; decrease in viability ([2]; 48 h, across 1–500 µM): 16–82%; decrease in viability ([3]; 24 h, across 1–500 µM): 7–84%; decrease in viability ([3]; 48 h, across 1–500 µM): 12–92%; decrease in viability ([4]; PC3, 48 h, 200 µM): ~ 32%; decrease in viability ([5]; DU145, 48 h, 1 µM): ~ 10%; concentration at which a statistically significant decrease in viability was observed ([5]; Du145, 24 h): 1 to 500 µM; decrease in viability ([6]; HepG2, 24 h, 1 µM): ~ 4%; decrease in viability ([6]; HepG2, 48 h, 1 µM): ~ 3%; viability (reduced to) ([6]; HepG2, 48 h, 50 µM): ~ 69%
